Test results: paper PMC3731359 (PLoS ONE, 2013)
“Also recorded” adds a separate entry of the source.

Key:
NAE [1] = biological target: T1, NAE (Homo sapiens, UniProt Q13564+Q8TBC4); assay: ATP/PPi exchange assay (NAE activation kinetics); format: biochemical; details: for activation by NAE: 50 µM heptameric peptide, 0.5 µM NAE, 30 min, room temperature, versus background with no peptide added; for kcat/Km: Nedd8 mimicking heptameric peptides, 0.1 µM NAE, 10–1000 µM peptide, pH 7.5, room temperature
T1 construct: made in house; host or cells: E. coli BL21(DE3)pLysS
T1 sequence (Q8TBC4 22-463 limits assumed): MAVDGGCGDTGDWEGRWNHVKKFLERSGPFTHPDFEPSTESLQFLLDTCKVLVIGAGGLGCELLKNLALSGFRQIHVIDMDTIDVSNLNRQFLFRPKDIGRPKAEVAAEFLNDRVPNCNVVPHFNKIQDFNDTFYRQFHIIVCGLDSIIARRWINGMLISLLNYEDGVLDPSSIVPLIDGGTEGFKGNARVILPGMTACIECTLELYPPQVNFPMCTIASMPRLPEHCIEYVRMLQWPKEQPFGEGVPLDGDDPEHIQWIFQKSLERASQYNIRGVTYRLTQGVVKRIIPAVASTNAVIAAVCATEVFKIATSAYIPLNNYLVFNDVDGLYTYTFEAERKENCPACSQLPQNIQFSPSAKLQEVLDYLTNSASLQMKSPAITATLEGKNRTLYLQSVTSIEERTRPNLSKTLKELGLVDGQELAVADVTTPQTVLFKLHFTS
T1 sequence (Q13564 1-534 partner): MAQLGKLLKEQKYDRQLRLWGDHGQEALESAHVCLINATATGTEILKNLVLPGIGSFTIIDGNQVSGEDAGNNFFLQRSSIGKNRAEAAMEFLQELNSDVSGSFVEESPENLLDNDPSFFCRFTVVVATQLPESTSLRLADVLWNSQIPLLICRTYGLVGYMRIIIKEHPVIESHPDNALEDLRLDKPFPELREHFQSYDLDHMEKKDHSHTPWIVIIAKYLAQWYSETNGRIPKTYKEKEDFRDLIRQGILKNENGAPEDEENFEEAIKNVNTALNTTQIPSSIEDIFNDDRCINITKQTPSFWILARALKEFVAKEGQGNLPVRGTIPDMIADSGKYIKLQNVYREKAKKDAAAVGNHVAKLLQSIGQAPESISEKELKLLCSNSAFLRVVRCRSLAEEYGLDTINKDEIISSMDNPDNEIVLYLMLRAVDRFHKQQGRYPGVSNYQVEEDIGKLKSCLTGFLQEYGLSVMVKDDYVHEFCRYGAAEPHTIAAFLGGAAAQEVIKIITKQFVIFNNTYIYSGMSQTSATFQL
Description: We used the ATP/PPi exchange assay [28], [29] to measure the kinetics of NAE activation of UB mutants. In this assay, NAE catalyzes the condensation of UB with ATP to form a UB-AMP conjugate coupled to the release of PPi. Externally added PPi labeled with the radioactive isotope ^32P sets the reaction in reverse thus incorporating ^32PPi into ATP. Radioactive ATP formed in the reaction is captured by charcoal and quantified. The rate of ^32PPi exchange into ATP reflects the reactivities of NAE with the UB variants to form UB-AMP intermediates.
The reaction was incubated for 30 min at room temperature and then quenched by the addition of 0.5 mL slurry of charcoal in 2% trichloroacetic acid. After centrifugation, the charcoal pellet was washed 3 times each time with 1 mL 2% trichloroacetic acid, and eventually resuspended in 0.5 mL water and 3.5 mL Ultima Gold LSC-cocktail (Perkin Elmer). The radioactivity bound to charcoal was determined by liquid scintillation counting.
The reaction was incubated at room temperature for 5, 10, 15, 20 and 25 minutes before it was quenched with the addition of 0.5 mL slurry of charcoal in 2% trichloroacetic acid. The radioactivity incorporated into charcoal-bound ATP was measured by liquid scintillation counting. K1/2 and kcat values of the ATP-PPi exchange reaction were calculated by fitting the data to the Michaelis-Menten equation with the data analysis software Origin. To measure peptide activation by NAE, 0.1 µM NAE was used in the reaction with the concentration of the peptides varying from 10 µM to 1000 µM.

NAE [2] = biological target: T1, NAE; assay: Western blot: peptide∼NAE thioester conjugate formation; format: biochemical; details: 5 µM peptide biotin-conjugated at N-terminus, 1 µM NAE, 1 mM ATP, 1 h, room temperature, streptavidin-HRP blot
Method: (§1) The peptides were conjugated to biotin at their N-termini. The Uba3 subunit of NAE formed the thioester conjugate with the peptides. The Western blot was probed with streptavidin conjugated to HRP.
(§2) Biotin Conjugation of the Peptides
(§3) Heptameric peptides with the C-terminal sequences of wt UB, wt Nedd8, and UB variants from phage selection were ordered from EZBiolab (Carmel, Indiana). The peptides were further purified by HPLC to be more than 95% pure. Peptide pN1 (2 mg, […]) was added to a solution of N-hydroxysuccinimidyl-6′-(biotinamido)-6-hexanamido hexanoate (NHS-LC-LC-biotin, Pierce) (4.4 mg, 7.750 µmol) in 50 mM sodium phosphate buffer (pH 7.0, 300 µL) and DMSO (300 µL). The reaction was allowed to proceed by stirring overnight at room temperature. The reaction mixture was then purified by HPLC with a gradient of 5–85% acetonitrile in 0.1% TFA/water at a flow rate of 10 mL/min over the course of 25 minutes. Biotin was conjugated to the N-terminal amino groups of the peptides pN7 and N26 with the same procedure. The purified biotin-peptide conjugates were lyophilized, and their identities were confirmed via MALDI-TOF mass spectrometry (positive mode): biotin-pN1 (VWLSYGG), calculated: 1256.10 Da (MNa^+), found: 1254.87 Da; biotin-pN7 (VMLFYGG), calculated: 1261.19 Da (MNa^+), found:1260.49 Da; biotin-pN26 (VLALRGG), calculated: 1138.06 Da (MH^+), found:1137.78 Da.
(§4) To assay the transfer of biotin conjugated peptides to NAE, Ubc12 and cullin, 5 µM biotin labeled peptide, 1 µM NAE, 1 µM Ubc12 and 1 µM cullin were incubated with 1 mM ATP, 10 mM MgCl2 and 50 µM DTT in the TBS buffer for 1 hour at room temperature before SDS-PAGE and membrane blotting. The membrane was blocked with 3% BSA in TBS buffer for 1 hour followed by incubation with 3% BSA in TBS buffer containing 1∶10,000 diluted 1 mg/mL streptavidin-horse radish peroxidase conjugate (Pierce) for 1 hour. The membrane was then washed 5 times with TBS-T buffer and 5 times with TBS buffer followed by detection with the ECL luminescent detection kit.

Ubc12 [3] = assay: Western blot: peptide transfer to Ubc12; format: biochemical; details: 5 µM peptide biotin-conjugated at N-terminus, 1 µM NAE, 1 µM Ubc12, 1 µM cullin, 1 h, room temperature, streptavidin-HRP blot
Method: as §1, §2, §3, §4

cullin 3 = assay: Western blot: peptide transfer to cullin 3; format: biochemical; details: 5 µM peptide biotin-conjugated at N-terminus, 1 µM NAE, 1 µM Ubc12, 1 µM cullin, 1 h, room temperature, streptavidin-HRP blot
Method: as §1, §2, §3, §4

NAE [4] = biological target: T1, NAE; assay: Inhibition of Nedd8 transfer through the cascade: NAE conjugate; format: biochemical; details: 5–200 µM peptide, 0.5 µM NAE, 0.5 µM Ubc12, 1 µM cullin, 1 h, then 5 µM HA-Nedd8, 15 min, Western blot
Description: as §1

Ubc12 [5] = assay: Inhibition of Nedd8 transfer to Ubc12; format: biochemical; details: 5–200 µM peptide, 0.5 µM NAE, 0.5 µM Ubc12, 1 µM cullin, 1 h, then 5 µM HA-Nedd8, 15 min, Western blot
Description: as §1

cullin-3 [6] = assay: Inhibition of Nedd8 transfer to cullin (cullin neddylation); format: biochemical; details: 5–200 µM peptide, 0.5 µM NAE, 0.5 µM Ubc12, 1 µM cullin, 1 h, then 5 µM HA-Nedd8, 15 min, Western blot
Description: as §1

Ubc12 (E2) = assay: Western blot: transfer of UB variants to Ubc12; format: biochemical; details: 5 µM HA-tagged protein, 1 µM NAE, 1 µM Ubc12, 1 µM cullin, 1 mM ATP, 1 h, room temperature, anti-HA Western blot
Method: (§5) Figure 6 Transfer of phage selected UB variants to NAE (E1), Ubc12 (E2), and cullin-3. HA-tagged wt UB, wt Nedd8 and UB variants were used in the assay. In the control reaction, either Ubc12 or cullin-3 in complex with Rbx1 was missing. The blots were probed with a mouse anti-HA antibody and a goat anti-mouse IgG antibody linked to HRP.
(§6) 20 µL of the reaction mixture were loaded on a 4–15% SDS-PAGE gel (Bio-Rad). After electrophoresis, the protein bands were electroblotted onto a piece of polyvinylidene fluoride membrane (Bio-Rad). The membrane was blocked with 3% BSA in TBS buffer for 1 hour followed by incubation with 3% BSA in TBS buffer containing 1∶500 diluted 200 µg/mL anti-HA antibody (Santa Cruz Biotechnology) and 1∶10,000 diluted anti-mouse horseradish peroxidase conjugate (Pierce) for 1 hour, respectively. The membrane was then washed 5 times with TBS-T buffer and 5 times with TBS buffer followed by detection with the ECL luminescent detection kit (GE Healthcare).

cullin-3 [7] = assay: Western blot: transfer of UB variants to cullin-3; format: biochemical; details: 5 µM HA-tagged protein, 1 µM NAE, 1 µM Ubc12, 1 µM cullin, 1 mM ATP, 1 h, room temperature, anti-HA Western blot
Method: as §5, §6

NAE (E1) = assay: Western blot: formation of UB∼NAE thioester conjugates; format: biochemical; details: 5 µM HA-tagged protein, 1 µM NAE, 1 mM ATP, 1 h, room temperature, anti-HA Western blot
Method: as §5, §6

NAE (Homo sapiens) = NAE (Homo sapiens) (UniProt Q13564); details: cited from earlier work
UAE = details: Ala72 of Nedd8 mutated to Arg; cited from earlier work
Description: As expected the two proteins also adopt very similar structures featuring the β-grasp fold. Their E1 enzymes are also homologous to each other in both peptide sequences and crystal structures, except that NAE is a heterodimer of two subunits, APPBP1 and Uba3, while UAE is composed of a single chain [8], [20], [21].

[8] = biological target: T2, Nedd8 activating enzyme (NAE), heterodimer of APPBP1 and Uba3 (UniProt Q13564 1-534; Q8TBC4 33-463); assay: cell-based or functional assay
T2 sequence 1: T1 sequence (Q13564 1-534 partner)
T2 sequence 2: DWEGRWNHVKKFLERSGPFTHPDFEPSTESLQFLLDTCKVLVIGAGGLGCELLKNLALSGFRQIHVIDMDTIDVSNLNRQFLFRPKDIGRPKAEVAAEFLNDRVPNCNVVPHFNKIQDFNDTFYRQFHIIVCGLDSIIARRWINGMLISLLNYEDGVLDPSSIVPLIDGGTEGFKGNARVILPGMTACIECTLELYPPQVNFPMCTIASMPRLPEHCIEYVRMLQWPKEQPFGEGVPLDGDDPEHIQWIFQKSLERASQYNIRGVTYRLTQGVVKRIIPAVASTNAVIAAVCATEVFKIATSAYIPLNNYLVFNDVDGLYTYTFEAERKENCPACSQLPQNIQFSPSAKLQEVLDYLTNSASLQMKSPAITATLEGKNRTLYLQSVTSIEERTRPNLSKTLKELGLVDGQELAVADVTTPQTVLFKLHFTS

VAAAAGG [pN11, heptameric peptide VAAAAGG derived from UB variant N11]
activation by NAE (NAE [1]): not reactive with NAE

VLALRGG [pN26]
activation by NAE (NAE [1]): can be activated at a level significantly higher than the background | formation of peptide∼NAE thioester conjugates (NAE [2]): can form thioester conjugates with NAE | formation of peptide∼Ubc12 conjugates (Ubc12 [3]): strong activity for the formation of peptide∼Ubc12 conjugates | transfer of peptide to cullin 3 (cullin 3): can be further transferred to cullin 3 | Nedd8 conjugates with NAE after preloading with peptide (NAE [4]): did not produce any Nedd8 conjugates with NAE, Ubc12 or cullin | Nedd8 conjugates with Ubc12 after preloading with peptide (Ubc12 [5]): did not produce any Nedd8 conjugates with NAE, Ubc12 or cullin | Nedd8 conjugates with cullin after preloading with peptide (cullin-3 [6]): did not produce any Nedd8 conjugates with NAE, Ubc12 or cullin

N11: UB variant from phage selection, C-terminal sequence 71AAAAGG76
transfer from NAE to Ubc12 (UB∼Ubc12 conjugates) (Ubc12 (E2)): can also be transferred from NAE to Ubc12 | transfer to cullin (cullin modification) (cullin-3 [7]): substantial cullin modification at a level similar or exceeding that of wt Nedd8; also recorded: can also be transferred through the NAE-Ubc12 cascade to modify cullin at a similar level as N26 and the wt Nedd8

VMLFYGG [pN7, Nedd8-mimicking heptameric peptide VMLFYGG]
activation by NAE (NAE [1]): can be activated at a level significantly higher than the background | kcat/Km (NAE [1]): 2670 M⁻¹ s⁻¹ | formation of peptide∼NAE thioester conjugates (NAE [2]): can form thioester conjugates with NAE; also recorded: form peptide∼NAE conjugates at a similar level as pN26 | formation of peptide∼Ubc12 conjugates (Ubc12 [3]): only has low activity for transferring to Ubc12 | transfer of peptide to cullin 3 (cullin 3): none of them can form peptide-cullin conjugates at a detectable level | Nedd8 conjugates with NAE after preloading with peptide (NAE [4]): did not produce any Nedd8 conjugates with NAE, Ubc12 or cullin | Nedd8 conjugates with Ubc12 after preloading with peptide (Ubc12 [5]): did not produce any Nedd8 conjugates with NAE, Ubc12 or cullin | Nedd8 conjugates with cullin after preloading with peptide (cullin-3 [6]): did not produce any Nedd8 conjugates with NAE, Ubc12 or cullin

N27: UB variant from phage selection, C-terminal sequence 71YQTYSG76, Gly75 replaced by Ser
formation of UB∼NAE conjugates (NAE (E1)): normal level of NAE activation and thioester formation with NAE | transfer from NAE to Ubc12 (UB∼Ubc12 conjugates) (Ubc12 (E2)): does not form a UB∼Ubc12 conjugate | transfer to cullin (cullin modification) (cullin-3 [7]): its transfer to Ubc12 and cullin is blocked

Nedd8 (from UniProt Q15843)
Kd (NAE (Homo sapiens)): 8.75 µM

Nedd8 mutant: Nedd8 with Ala72 mutated to Arg
activation by UAE (UAE): can be activated by UAE | increase in affinity with UAE (UAE): 65 fold

VWLSYGG [pN1, Nedd8-mimicking heptameric peptide VWLSYGG]
activation by NAE (NAE [1]): can be activated at a level significantly higher than the background | kcat/Km (NAE [1]): 3000 M⁻¹ s⁻¹ | formation of peptide∼NAE thioester conjugates (NAE [2]): can form thioester conjugates with NAE; also recorded: form peptide∼NAE conjugates at a similar level as pN26 | formation of peptide∼Ubc12 conjugates (Ubc12 [3]): no observable formation of peptide∼Ubc12 conjugates | transfer of peptide to cullin 3 (cullin 3): none of them can form peptide-cullin conjugates at a detectable level | Nedd8 conjugates with NAE after preloading with peptide (NAE [4]): did not produce any Nedd8 conjugates with NAE, Ubc12 or cullin | Nedd8 conjugates with Ubc12 after preloading with peptide (Ubc12 [5]): did not produce any Nedd8 conjugates with NAE, Ubc12 or cullin | Nedd8 conjugates with cullin after preloading with peptide (cullin-3 [6]): did not produce any Nedd8 conjugates with NAE, Ubc12 or cullin

VWLSYGG [peptide pN1 (70VWLSYGG76)]
Km (K1/2) of the ATP/PPi exchange reaction catalyzed by NAE [8]: 130 µM | kcat of the ATP/PPi exchange reaction catalyzed by NAE [8]: 0.4 s⁻¹ | kcat/Km of the ATP/PPi exchange reaction catalyzed by NAE [8]: 3000 M⁻¹ s⁻¹

VLALRGG [peptide pN26 (70VLALRGG76)]
kcat of the ATP/PPi exchange reaction catalyzed by NAE [8]: 0.433 s⁻¹ | kcat/Km of the ATP/PPi exchange reaction catalyzed by NAE [8]: 4830 M⁻¹ s⁻¹

VMLFYGG [peptide pN7 (70VMLFYGG76)]
Km (K1/2) of the ATP/PPi exchange reaction catalyzed by NAE [8]: 155 µM | kcat of the ATP/PPi exchange reaction catalyzed by NAE [8]: 0.4 s⁻¹ | kcat/Km of the ATP/PPi exchange reaction catalyzed by NAE [8]: 2670 M⁻¹ s⁻¹
